Reference: PubChem BioAssay (NCI)
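These data come from cells grown in 96-well plates and exposed to compound for 48 hours at five concentrations. TGI marks complete inhibition of growth.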

Experiments:
Assay in all cases: NCI tumour cell line growth inhibition, 48 h
[1] = test system: RXF 393 renal
[2] = test system: HCT-116 colon
[3] = test system: NCI-H226 lung
[4] = test system: SN12C renal
[5] = test system: SK-MEL-28 melanoma
[6] = test system: ACHN renal
[7] = test system: OVCAR-5 ovarian
[8] = test system: SF-268 CNS
[9] = test system: UO-31 renal
[10] = test system: COLO 205 colon
[11] = test system: HT29 colon
[12] = test system: NCI-H23 lung
[13] = test system: SF-539 CNS
[14] = test system: RPMI-8226 leukemia
[15] = test system: MOLT-4 leukemia
[16] = test system: UACC-257 melanoma
[17] = test system: OVCAR-3 ovarian
[18] = test system: NCI/ADR-RES ovarian
[19] = test system: CAKI-1 renal
[20] = test system: SNB-75 CNS

Row | SMILES | TGI [1] [µM] | TGI [2] [µM] | TGI [3] [µM] | TGI [4] [µM] | TGI [5] [µM] | TGI [6] [µM] | TGI [7] [µM] | TGI [8] [µM] | TGI [9] [µM] | TGI [10] [µM] | TGI [11] [µM] | TGI [12] [µM] | TGI [13] [µM] | TGI [14] [µM] | TGI [15] [µM] | TGI [16] [µM] | TGI [17] [µM] | TGI [18] [µM] | TGI [19] [µM] | TGI [20] [µM]
1 | CCO[C@]12C[C@H](OC)[C@@]3(O)CC(C1[C@H]3O)C13C4C2[C@H](OC)C1[C@](COC)(CN4CC)[C@H](O)C[C@@H]3OC (some centres undefined) | > 100 | > 100 | > 100 | > 100 | > 100 | > 100 | > 100 | > 100 | > 100 | > 100 | > 100 | > 100 | > 100 | > 100 | > 100 | > 100 | – | – | – | –
2 | COc1ccc(N2C(=O)C3c4[nH]c5cccc(C)c5c4C4CCC(C(C)(C)C)CC4C3C2=O)cc1 (centres undefined) | > 10 | > 10 | > 10 | > 10 | > 10 | > 10 | > 10 | > 10 | > 10 | > 10 | > 10 | > 10 | > 10 | > 10 | > 10 | – | > 10 | > 10 | > 10 | > 10
3 | CC(C)(C)C(=O)C(C(c1ccccc1)N1CCOCC1)N1CCOCC1 (centres undefined) | > 100 | > 100 | – | > 100 | > 100 | > 100 | > 100 | > 100 | > 100 | – | > 100 | > 100 | – | > 100 | > 100 | > 100 | > 100 | > 100 | > 100 | > 100
4 | CC(C)[C@](O)(C(=O)OCC1CC[N+]2([O-])CC[C@@H](O)C12)[C@H](C)O (some centres undefined) | > 375 | > 256 | > 375 | > 375 | > 375 | – | > 375 | > 375 | > 375 | > 375 | > 375 | > 375 | > 375 | > 375 | > 375 | > 375 | > 375 | > 375 | > 375 | > 161
5 | OCCN(CCO)c1ccc2c(c1)Cc1ccccc1-2 | – | > 100 | > 100 | > 100 | > 100 | > 100 | > 100 | > 100 | > 100 | 35.7 | 37.8 | > 100 | > 100 | > 100 | > 100 | 96.7 | 45.9 | > 100 | 32 | –
6 | CCCCCCCCCCCCCCCCOCC(COP(=O)([O-])OCC[N+](C)(C)C)OCCCCCCCCCCCCCCCC (centres undefined) | > 100 | > 100 | > 100 | > 100 | > 100 | – | > 100 | > 100 | > 100 | > 100 | > 100 | > 100 | > 100 | > 100 | > 100 | > 100 | > 100 | > 100 | > 100 | > 100
7 | CCCCN1C(=O)NC(Cc2ccccc2)C1=O (centres undefined) | > 100 | – | > 100 | > 100 | > 100 | > 100 | > 100 | > 100 | > 100 | – | > 100 | > 100 | > 100 | – | – | > 100 | – | – | > 100 | > 100
8 | CC(=O)Oc1ccccc1C(=O)O | > 100 | > 100 | > 100 | > 100 | > 100 | > 100 | > 100 | > 100 | > 100 | > 100 | > 100 | > 100 | > 100 | > 100 | > 100 | > 100 | > 100 | > 100 | > 100 | > 100
9 | O=[n+]1c2ccccc2n([O-])c2cc(Br)ccc21 | 41.1 | > 100 | 48.5 | 42.3 | > 100 | 17.4 | > 100 | 55.3 | 28.1 | 57.2 | 39.1 | 49.6 | 37.5 | 61.4 | 2.19 | 34.9 | 9.04 | 68.9 | 17.2 | 77.7
10 | Cc1ccc(-c2csc(=Nc3c(C)n(C)n(-c4ccccc4)c3=O)n2CCO)cc1 | > 100 | – | > 100 | > 100 | > 100 | > 100 | > 100 | > 100 | > 100 | – | – | > 100 | > 100 | > 100 | > 100 | > 100 | > 100 | > 100 | > 100 | > 100
